Data reported in patent US20240228555A9, “ANTIMICROBIAL PEPTIDOMIMETICS” (Basilea Pharmaceutica International AG, Allschwil, priority 2020, published 2024).
Where a SMILES comes first, the peptide text is derived from it.

Tests used:
[1] = test system: human red blood cells (hRBC); type: cell-based; conditions: red cells of human, 1 h, 0.2 g/L
Summary of the method: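 PBS-washed human erythrocytes (20% v/v) were incubated with compounds at 200 μg/mL for 1 h at 37° C with shaking. Supernatant OD540 was read after 8-fold dilution; hemolysis % = OD540 peptide / OD540 of the 100% lysis control (2.5% Triton X-100 in H2O) ×100, with PBS as 0%.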

[2] = test system: Escherichia coli MCR-1 Af 45; conditions: Mueller-Hinton broth II, no visible growth after 18-20 hours at 35° C.
Summary of the method: (§1)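 Broth microdilution; cation-adjusted MHII; inoculum ~5×10^5 CFU/mL from 0.5 McFarland saline suspension; peptide two-fold serial dilutions; polysorbate 80 0.002% final; peptide stock 1 mg/mL in water.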

[3] = test system: Escherichia coli ATCC 25922; conditions: ATCC 25922
Summary of the method: as §1

[4] = test system: Klebsiella pneumoniae SSI3010; conditions: SSI3010
Summary of the method: as §1

CC[C@H](C)[C@H](NC(=O)[C@@H]1C[C@@H](N)CN1C(=O)[C@@H](N)C(C)C)C(=O)N[C@H](C(=O)N[C@@H](Cc1ccc(O)cc1)C(=O)N[C@@H]1C(=O)N[C@@H](CC(N)=O)C(=O)N[C@@H](CCCNC(=N)N)C(=O)N[C@@H](CCN)C(=O)N[C@@H]([C@@H](C)O)C(=O)N[C@H](CCN)C(=O)N[C@@H](CCCNC(N)=O)C(=O)N[C@H](C(=O)N[C@@H](CCN)C(=O)N[C@H](C(=O)N[C@@H](Cc2ccc(O)cc2)C(=O)O)[C@@H](C)O)CSSC1(C)C)[C@@H](C)O [Example 116, Val-Pro((4R)NH2)-Ile-Thr-Tyr-Pen-Asn-Arg-Dab-Thr-^DDab-Cit-Cys-Dab-Thr-Tyr] (HELM PEPTIDE1{V.[N[C@@H]1C[C@@H](C(=O)[*:2])N([*:1])C1].I.T.Y.[Pen].N.R.[Dab].T.[NCC[C@@H](N[*:1])C(=O)[*:2]].[Cit].C.[Dab].T.Y}$PEPTIDE1,PEPTIDE1,6:R3-13:R3$$$V2.0)
Hemolysis at 0.2 g/L [1]: <1%
Escherichia coli MCR-1 Af 45 MIC [2]: 0.25 mg/L
Escherichia coli ATCC 25922 MIC [3]: 0.25 mg/L
Klebsiella pneumoniae SSI3010 MIC [4]: 0.5 mg/L

CC[C@H](C)[C@@H]1NC(=O)[C@@H](CCN)NC(=O)[C@H]([C@@H](C)O)NC(=O)[C@H](CCN)NC(=O)[C@H](CCCNC(=N)N)NC(=O)[C@H](CC(N)=O)NC(=O)[C@@H](NC(=O)[C@H](Cc2ccc(O)cc2)NC(=O)[C@@H](NC(=O)[C@@H](NC(=O)[C@@H]2C[C@@H](N)CN2C(=O)[C@@H](N)C(C)C)[C@@H](C)CC)[C@@H](C)O)C(C)(C)SSC[C@@H](C(=O)N[C@@H](CCN)C(=O)N[C@H](C(=O)N[C@@H](Cc2ccc(O)cc2)C(=O)O)[C@@H](C)O)NC1=O [Example 117, Val-Pro((4R)NH2)-Ile-Thr-Tyr-Pen-Asn-Arg-Dab-Thr-^DDab-Ile-Cys-Dab-Thr-Tyr] (HELM PEPTIDE1{V.[N[C@@H]1C[C@@H](C(=O)[*:2])N([*:1])C1].I.T.Y.[Pen].N.R.[Dab].T.[NCC[C@@H](N[*:1])C(=O)[*:2]].I.C.[Dab].T.Y}$PEPTIDE1,PEPTIDE1,6:R3-13:R3$$$V2.0)
Hemolysis at 0.2 g/L [1]: <1%
Escherichia coli MCR-1 Af 45 MIC [2]: 0.125 mg/L
Escherichia coli ATCC 25922 MIC [3]: 0.125 mg/L
Klebsiella pneumoniae SSI3010 MIC [4]: 0.25 mg/L

CC[C@H](C)[C@H](NC(=O)[C@@H](NC(=O)[C@@H]1C[C@@H](O)CN1C(=O)[C@@H](N)C(C)C)[C@@H](C)CC)C(=O)N[C@@H](Cc1ccc(O)cc1)C(=O)N[C@@H]1C(=O)N[C@@H](CC(N)=O)C(=O)N[C@@H](CCCNC(=N)N)C(=O)N[C@@H](CCN)C(=O)N[C@@H](CO)C(=O)N[C@H](CCN)C(=O)N[C@@H]([C@@H](C)CC)C(=O)N[C@H](C(=O)N[C@@H](CCN)C(=O)N[C@@H](CCCNC(=N)N)C(=O)N[C@@H](Cc2ccc(O)cc2)C(=O)O)CSSC1(C)C [Example 118, Val-Hyp-Ile-Ile-Tyr-Pen-Asn-Arg-Dab-Ser-^DDab-Ile-Cys-Dab-Arg-Tyr] (HELM PEPTIDE1{V.[Hyp].I.I.Y.[Pen].N.R.[Dab].S.[NCC[C@@H](N[*:1])C(=O)[*:2]].I.C.[Dab].R.Y}$PEPTIDE1,PEPTIDE1,6:R3-13:R3$$$V2.0)
Hemolysis at 0.2 g/L [1]: <1%
Escherichia coli MCR-1 Af 45 MIC [2]: 0.25 mg/L
Escherichia coli ATCC 25922 MIC [3]: 0.25 mg/L
Klebsiella pneumoniae SSI3010 MIC [4]: 0.25 mg/L

CC[C@H](C)[C@H](NC(=O)[C@@H]1C[C@@H](N)CN1C(=O)[C@@H](N)C(C)C)C(=O)N[C@H](C(=O)N[C@@H](Cc1ccc(O)cc1)C(=O)N[C@@H]1C(=O)N[C@@H](CC(N)=O)C(=O)N[C@@H](CCCNC(=N)N)C(=O)N[C@@H](CCN)C(=O)N[C@@H]([C@@H](C)O)C(=O)N[C@H](CCN)C(=O)N[C@@H](CCCCN)C(=O)N[C@H](C(=O)N[C@@H](CO)C(=O)N[C@H](C(=O)N[C@@H](Cc2ccc(O)cc2)C(=O)O)[C@@H](C)O)CSSC1(C)C)[C@@H](C)O [Example 119, Val-Pro((4R)NH2)-Ile-Thr-Tyr-Pen-Asn-Arg-Dab-Thr-^DDab-Lys-Cys-Ser-Thr-Tyr] (HELM PEPTIDE1{V.[N[C@@H]1C[C@@H](C(=O)[*:2])N([*:1])C1].I.T.Y.[Pen].N.R.[Dab].T.[NCC[C@@H](N[*:1])C(=O)[*:2]].K.C.S.T.Y}$PEPTIDE1,PEPTIDE1,6:R3-13:R3$$$V2.0)
Hemolysis at 0.2 g/L [1]: <1%
Escherichia coli MCR-1 Af 45 MIC [2]: 0.25 mg/L
Escherichia coli ATCC 25922 MIC [3]: 0.25 mg/L
Klebsiella pneumoniae SSI3010 MIC [4]: 0.25 mg/L

CC[C@H](C)[C@H](NC(=O)[C@@H]1C[C@@H](N)CN1C(=O)[C@@H](N)C(C)C)C(=O)N[C@H](C(=O)N[C@@H](Cc1ccc(O)cc1)C(=O)N[C@@H]1C(=O)N[C@@H](CC(N)=O)C(=O)N[C@@H](CCCNC(=N)N)C(=O)N[C@@H](CCN)C(=O)N[C@@H]([C@@H](C)O)C(=O)N[C@H](CCN)C(=O)N[C@@H](CCCCN)C(=O)N[C@H](C(=O)N[C@@H](CCN)C(=O)N[C@H](C(=O)N[C@@H](Cc2ccc(O)cc2)C(=O)O)[C@@H](C)O)CSSC1(C)C)[C@@H](C)O [Example 120, Val-Pro((4R)NH2)-Ile-Thr-Tyr-Pen-Asn-Arg-Dab-Thr-^DDab-Lys-Cys-Dab-Thr-Tyr] (HELM PEPTIDE1{V.[N[C@@H]1C[C@@H](C(=O)[*:2])N([*:1])C1].I.T.Y.[Pen].N.R.[Dab].T.[NCC[C@@H](N[*:1])C(=O)[*:2]].K.C.[Dab].T.Y}$PEPTIDE1,PEPTIDE1,6:R3-13:R3$$$V2.0)
Hemolysis at 0.2 g/L [1]: <1%
Escherichia coli MCR-1 Af 45 MIC [2]: 0.125 mg/L
Escherichia coli ATCC 25922 MIC [3]: 0.25 mg/L
Klebsiella pneumoniae SSI3010 MIC [4]: 0.5 mg/L

CC[C@H](C)[C@H](NC(=O)[C@@H](NC(=O)[C@@H]1C[C@@H](O)CN1C(=O)[C@@H](N)C(C)C)[C@@H](C)CC)C(=O)N[C@@H](Cc1ccc(O)cc1)C(=O)N[C@@H]1C(=O)N[C@@H](CC(N)=O)C(=O)N[C@@H](CCCNC(=N)N)C(=O)N[C@@H](CCCN)C(=O)N[C@@H]([C@@H](C)O)C(=O)N[C@H](CCN)C(=O)N[C@@H]([C@@H](C)CC)C(=O)N[C@H](C(=O)N[C@@H](CCN)C(=O)N[C@@H](CCCNC(=N)N)C(=O)N[C@@H](Cc2ccc(O)cc2)C(=O)O)CSSC1(C)C [Example 121, Val-Hyp-Ile-Ile-Tyr-Pen-Asn-Arg-Orn-Thr-^DDab-Ile-Cys-Dab-Arg-Tyr] (HELM PEPTIDE1{V.[Hyp].I.I.Y.[Pen].N.R.[Orn].T.[NCC[C@@H](N[*:1])C(=O)[*:2]].I.C.[Dab].R.Y}$PEPTIDE1,PEPTIDE1,6:R3-13:R3$$$V2.0)
Hemolysis at 0.2 g/L [1]: <1%
Escherichia coli MCR-1 Af 45 MIC [2]: 0.25 mg/L
Escherichia coli ATCC 25922 MIC [3]: 0.25 mg/L
Klebsiella pneumoniae SSI3010 MIC [4]: 0.5 mg/L

CC[C@H](C)[C@H](NC(=O)[C@@H]1C[C@@H](O)CN1C(=O)[C@@H](N)C(C)C)C(=O)N[C@@H](CCCN)C(=O)N[C@@H](Cc1ccc(O)cc1)C(=O)N[C@@H]1C(=O)N[C@@H](CC(N)=O)C(=O)N[C@@H](CCCNC(=N)N)C(=O)N[C@@H](CCN)C(=O)N[C@@H]([C@@H](C)O)C(=O)N[C@H](CCN)C(=O)N[C@@H](CCCCN)C(=O)N[C@H](C(=O)N[C@@H](CCN)C(=O)N[C@H](C(=O)N[C@@H](Cc2ccc(O)cc2)C(=O)O)[C@@H](C)O)CSSC1(C)C [Example 122, Val-Hyp-Ile-Orn-Tyr-Pen-Asn-Arg-Dab-Thr-^DDab-Lys-Cys-Dab-Thr-Tyr] (HELM PEPTIDE1{V.[Hyp].I.[Orn].Y.[Pen].N.R.[Dab].T.[NCC[C@@H](N[*:1])C(=O)[*:2]].K.C.[Dab].T.Y}$PEPTIDE1,PEPTIDE1,6:R3-13:R3$$$V2.0)
Hemolysis at 0.2 g/L [1]: <1%
Escherichia coli MCR-1 Af 45 MIC [2]: 0.125 mg/L
Escherichia coli ATCC 25922 MIC [3]: 0.25 mg/L
Klebsiella pneumoniae SSI3010 MIC [4]: 0.5 mg/L

CC[C@H](C)[C@@H]1NC(=O)[C@@H](NC(=O)[C@H](Cc2ccc(O)cc2)NC(=O)[C@@H](NC(=O)[C@@H](NC(=O)[C@@H]2C[C@@H](O)CN2C(=O)[C@@H](N)C(C)C)[C@@H](C)CC)[C@@H](C)O)C(C)(C)SSC[C@@H](C(=O)N[C@@H](CCN)C(=O)N[C@@H](CCCNC(=N)N)C(=O)N[C@@H](Cc2ccc(O)cc2)C(=O)O)NC(=O)[C@H](CCCN)NC(=O)[C@@H](CCN)NC(=O)[C@H]([C@@H](C)O)NC(=O)[C@H](CCN)NC(=O)[C@H](CCCNC(=N)N)NC1=O [Example 123, Val-Hyp-Ile-Thr-Tyr-Pen-Ile-Arg-Dab-Thr-^DDab-Orn-Cys-Dab-Arg-Tyr] (HELM PEPTIDE1{V.[Hyp].I.T.Y.[Pen].I.R.[Dab].T.[NCC[C@@H](N[*:1])C(=O)[*:2]].[Orn].C.[Dab].R.Y}$PEPTIDE1,PEPTIDE1,6:R3-13:R3$$$V2.0)
Hemolysis at 0.2 g/L [1]: <1%
Escherichia coli MCR-1 Af 45 MIC [2]: 0.125 mg/L
Escherichia coli ATCC 25922 MIC [3]: 0.0625 mg/L
Klebsiella pneumoniae SSI3010 MIC [4]: 0.125 mg/L

CC[C@H](C)[C@H](NC(=O)[C@@H](NC(=O)[C@@H]1C[C@@H](O)CN1C(=O)[C@@H](N)C(C)C)[C@@H](C)CC)C(=O)N[C@@H](Cc1ccc(O)cc1)C(=O)N[C@@H]1C(=O)N[C@@H](CC(N)=O)C(=O)N[C@@H](CCCNC(=N)N)C(=O)N[C@@H](CCCNC(N)=O)C(=O)N[C@@H]([C@@H](C)O)C(=O)N[C@H](CCN)C(=O)N[C@@H](CCCCN)C(=O)N[C@H](C(=O)N[C@@H](CCN)C(=O)N[C@@H](CCCNC(=N)N)C(=O)N[C@@H](Cc2ccc(O)cc2)C(=O)O)CSSC1(C)C [Example 124, Val-Hyp-Ile-Ile-Tyr-Pen-Asn-Arg-Cit-Thr-^DDab-Lys-Cys-Dab-Arg-Tyr] (HELM PEPTIDE1{V.[Hyp].I.I.Y.[Pen].N.R.[Cit].T.[NCC[C@@H](N[*:1])C(=O)[*:2]].K.C.[Dab].R.Y}$PEPTIDE1,PEPTIDE1,6:R3-13:R3$$$V2.0)
Hemolysis at 0.2 g/L [1]: <1%
Escherichia coli MCR-1 Af 45 MIC [2]: 0.25 mg/L
Escherichia coli ATCC 25922 MIC [3]: 0.25 mg/L
Klebsiella pneumoniae SSI3010 MIC [4]: 0.5 mg/L
